Active and inactive are the calls of the source.
Legend:
[1] = biological target: T1, Carboxy-terminal domain RNA polymerase II polypeptide A small phosphatase 1 (Homo sapiens, UniProt Q9GZU7); test: inhibitors of CTDSP1, concentration-response testing, biochemical assay, absorbance-based, actives from ultra-high-throughput screening (AID 540297); format: functional
T1 sequence (Q9GZU7 whole entry): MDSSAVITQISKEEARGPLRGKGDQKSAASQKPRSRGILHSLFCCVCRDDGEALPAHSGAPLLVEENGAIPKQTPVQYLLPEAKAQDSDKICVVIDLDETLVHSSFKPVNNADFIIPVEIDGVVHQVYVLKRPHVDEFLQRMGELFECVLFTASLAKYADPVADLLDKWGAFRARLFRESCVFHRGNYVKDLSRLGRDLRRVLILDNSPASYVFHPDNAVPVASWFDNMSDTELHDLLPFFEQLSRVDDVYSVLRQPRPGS

H9c2 = test: cells; format: functional, cell-based; conditions: Rattus norvegicus, H9c2, Myocardium;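 note: confirmatory concentration-response retest of ultra-high-throughput screening hits for modulation of myocardial damage; cell death induced by hydrogen peroxide oxidative stress; compound pretreatment for 60 min then peroxide exposure for 2 h; potency is for protecting the cells against peroxide damage rather than for killing them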
Paired box protein Pax-8 = Paired box protein Pax-8 (Homo sapiens, UniProt Q06710); test: inhibitors of PAX8-driven TPO luciferase reporter, dose response, RMG-I cells, cherry-pick (AID 687027); format: functional, cell-based;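 note: luciferase reporter driven by Pax8 target thyroperoxidase promoter measured by SteadyGlo luminescence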
Chain of Paired box protein Pax-8 (Q06710 whole entry): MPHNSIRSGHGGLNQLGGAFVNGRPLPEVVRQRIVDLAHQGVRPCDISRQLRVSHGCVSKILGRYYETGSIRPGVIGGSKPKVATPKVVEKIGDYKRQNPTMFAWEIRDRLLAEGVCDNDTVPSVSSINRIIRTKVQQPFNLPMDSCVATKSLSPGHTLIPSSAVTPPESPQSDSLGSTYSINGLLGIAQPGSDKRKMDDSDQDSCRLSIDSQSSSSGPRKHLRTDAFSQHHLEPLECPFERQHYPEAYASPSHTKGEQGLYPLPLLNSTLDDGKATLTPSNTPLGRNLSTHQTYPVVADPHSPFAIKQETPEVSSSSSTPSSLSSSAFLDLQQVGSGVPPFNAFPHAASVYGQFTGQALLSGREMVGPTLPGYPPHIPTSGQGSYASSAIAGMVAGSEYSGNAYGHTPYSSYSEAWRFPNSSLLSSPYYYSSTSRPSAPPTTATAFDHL

[2] = biological target: T2, Calpain-2 catalytic subunit (Sus scrofa, UniProt P43367); test: pig calpain II inhibitor potency, dose response, biochemical, fluorogenic peptide substrate (AID 1420); format: functional
T2 sequence (P43367 whole entry): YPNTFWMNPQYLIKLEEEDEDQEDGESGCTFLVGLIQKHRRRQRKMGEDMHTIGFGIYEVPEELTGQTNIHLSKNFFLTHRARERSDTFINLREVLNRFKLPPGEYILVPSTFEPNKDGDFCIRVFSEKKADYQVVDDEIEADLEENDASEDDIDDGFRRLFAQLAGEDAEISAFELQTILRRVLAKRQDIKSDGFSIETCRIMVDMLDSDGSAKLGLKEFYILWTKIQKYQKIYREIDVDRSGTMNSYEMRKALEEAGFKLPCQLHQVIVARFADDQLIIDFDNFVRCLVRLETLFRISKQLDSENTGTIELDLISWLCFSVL

[3] = test system: Streptococcus sp. 'group A'; test: growth inhibition of control SK(-) GAS strain, dose response, counter-screen for streptokinase expression inhibitor project, luminescence, kanamycin, BacTiterGlo, confirmation (AID 1900); format: functional, organism-based
Streptococcus = test: Group A Streptococcus viability loss, dose response, counter-screen for streptokinase expression inhibitor project, luminescence, BacTiterGlo (AID 1915); format: functional, organism-based;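 note: potency for reduction of bacterial viability or growth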
Streptokinase A = biological target: T3, Streptokinase A (Streptococcus pyogenes serotype M1, UniProt P10520); test: S. pyogenes streptokinase expression inhibitors, potency, dose response, plasminogen activation absorbance, OD405 (AID 1914); format: functional, Streptococcus pyogenes M1 GAS;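 note: secreted streptokinase activity via plasminogen activation per viability signal from cell pellet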
T3 sequence (P10520 whole entry): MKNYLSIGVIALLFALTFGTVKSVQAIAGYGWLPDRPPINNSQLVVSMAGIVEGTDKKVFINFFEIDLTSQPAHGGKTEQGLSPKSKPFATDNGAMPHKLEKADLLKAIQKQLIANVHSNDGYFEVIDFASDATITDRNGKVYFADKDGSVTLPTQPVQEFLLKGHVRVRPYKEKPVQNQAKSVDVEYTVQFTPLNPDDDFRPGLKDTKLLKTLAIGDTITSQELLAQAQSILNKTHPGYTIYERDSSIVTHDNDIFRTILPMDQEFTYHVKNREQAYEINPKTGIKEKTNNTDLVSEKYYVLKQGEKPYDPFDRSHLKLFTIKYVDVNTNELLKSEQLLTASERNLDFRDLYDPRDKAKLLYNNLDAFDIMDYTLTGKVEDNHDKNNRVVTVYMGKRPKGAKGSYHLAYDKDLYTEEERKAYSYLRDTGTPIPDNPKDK

Cytochrome P450 2C9 = Cytochrome P450 2C9 (Homo sapiens, UniProt P11712)
Chain of Cytochrome P450 2C9 (P11712 whole entry): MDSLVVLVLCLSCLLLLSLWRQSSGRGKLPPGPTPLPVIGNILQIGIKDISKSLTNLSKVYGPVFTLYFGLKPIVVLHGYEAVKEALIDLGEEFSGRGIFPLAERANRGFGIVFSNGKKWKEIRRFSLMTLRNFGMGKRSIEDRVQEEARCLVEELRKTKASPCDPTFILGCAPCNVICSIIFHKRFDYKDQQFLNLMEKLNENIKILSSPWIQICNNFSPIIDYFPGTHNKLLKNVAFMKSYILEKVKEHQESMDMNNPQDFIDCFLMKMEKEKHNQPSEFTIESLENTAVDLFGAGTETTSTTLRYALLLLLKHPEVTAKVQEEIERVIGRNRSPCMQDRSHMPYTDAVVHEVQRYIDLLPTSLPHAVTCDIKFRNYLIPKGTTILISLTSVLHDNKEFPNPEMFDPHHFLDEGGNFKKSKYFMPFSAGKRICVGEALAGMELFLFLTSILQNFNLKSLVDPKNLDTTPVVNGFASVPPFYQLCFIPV

Cytochrome P450 2C19 = Cytochrome P450 2C19 (Homo sapiens, UniProt P33261); test: Cytochrome panel assay with activity outcomes. Panel member name: p450-cyp2c19 Compounds with AC50 equal or less than 10 uM are considered active; format: functional; conditions: read-out: AC50
Chain of Cytochrome P450 2C19 (P33261 whole entry): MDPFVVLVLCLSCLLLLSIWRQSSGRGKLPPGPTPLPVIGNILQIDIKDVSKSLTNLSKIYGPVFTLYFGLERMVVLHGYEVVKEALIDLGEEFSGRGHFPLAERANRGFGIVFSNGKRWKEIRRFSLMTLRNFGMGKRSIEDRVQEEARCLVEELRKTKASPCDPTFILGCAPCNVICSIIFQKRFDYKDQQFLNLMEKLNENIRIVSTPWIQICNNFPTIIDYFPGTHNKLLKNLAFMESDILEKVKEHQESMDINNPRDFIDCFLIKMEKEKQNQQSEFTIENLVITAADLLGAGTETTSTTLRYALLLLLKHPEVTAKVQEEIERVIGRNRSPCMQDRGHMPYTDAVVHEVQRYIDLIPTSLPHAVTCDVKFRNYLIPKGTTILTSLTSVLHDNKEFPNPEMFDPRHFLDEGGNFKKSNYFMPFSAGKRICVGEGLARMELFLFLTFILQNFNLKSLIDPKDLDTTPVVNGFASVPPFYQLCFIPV

[4] = THP-1 cell cytotoxicity, dose response, cytotoxicity control for non-replicating M. tuberculosis project (AID 489025); format: functional
Cytochrome P450 1A2 = biological target: T4, Cytochrome P450 1A2 (Homo sapiens, UniProt P05177);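 note: PubChem cytochrome P450 panel assay, CYP1A2 panel member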
T4 sequence (P05177 whole entry): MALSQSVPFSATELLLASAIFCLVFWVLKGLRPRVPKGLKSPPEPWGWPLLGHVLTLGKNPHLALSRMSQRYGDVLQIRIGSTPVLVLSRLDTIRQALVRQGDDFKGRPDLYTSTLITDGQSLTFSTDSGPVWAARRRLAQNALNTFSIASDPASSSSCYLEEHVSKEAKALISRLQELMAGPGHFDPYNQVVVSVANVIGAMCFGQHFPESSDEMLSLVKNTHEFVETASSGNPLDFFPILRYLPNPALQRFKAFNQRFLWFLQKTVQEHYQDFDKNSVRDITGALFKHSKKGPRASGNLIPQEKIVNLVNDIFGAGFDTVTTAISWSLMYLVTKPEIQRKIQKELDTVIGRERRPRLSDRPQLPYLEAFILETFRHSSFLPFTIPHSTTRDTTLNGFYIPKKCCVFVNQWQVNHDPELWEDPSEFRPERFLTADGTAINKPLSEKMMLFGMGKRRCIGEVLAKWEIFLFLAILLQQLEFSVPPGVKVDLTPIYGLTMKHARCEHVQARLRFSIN

Protein skinhead-1 = biological target: T5, Protein skinhead-1 (Caenorhabditis elegans, UniProt P34707); format: functional
T5 sequence (P34707 whole entry): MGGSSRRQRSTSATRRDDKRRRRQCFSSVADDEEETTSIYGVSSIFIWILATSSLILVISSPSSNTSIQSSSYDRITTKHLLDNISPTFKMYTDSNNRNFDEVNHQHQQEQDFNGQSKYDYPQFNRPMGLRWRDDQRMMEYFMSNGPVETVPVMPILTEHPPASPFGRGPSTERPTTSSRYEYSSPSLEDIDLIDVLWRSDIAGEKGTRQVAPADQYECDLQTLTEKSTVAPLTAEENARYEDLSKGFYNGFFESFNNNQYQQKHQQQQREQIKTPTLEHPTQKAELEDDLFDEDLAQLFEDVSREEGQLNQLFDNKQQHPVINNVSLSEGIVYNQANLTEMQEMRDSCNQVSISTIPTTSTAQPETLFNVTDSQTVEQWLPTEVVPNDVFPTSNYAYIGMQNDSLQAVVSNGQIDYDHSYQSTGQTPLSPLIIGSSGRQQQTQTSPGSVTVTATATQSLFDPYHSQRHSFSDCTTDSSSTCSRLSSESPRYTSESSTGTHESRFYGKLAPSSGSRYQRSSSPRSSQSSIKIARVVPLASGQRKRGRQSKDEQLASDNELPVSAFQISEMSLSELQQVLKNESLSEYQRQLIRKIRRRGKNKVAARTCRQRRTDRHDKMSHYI

cells = format: functional
Cytochrome P450 2D6 = Cytochrome P450 2D6 (Homo sapiens, UniProt P10635);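 note: CYP2D6 member of a cytochrome P450 panel assay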
Chain of Cytochrome P450 2D6 (P10635 whole entry): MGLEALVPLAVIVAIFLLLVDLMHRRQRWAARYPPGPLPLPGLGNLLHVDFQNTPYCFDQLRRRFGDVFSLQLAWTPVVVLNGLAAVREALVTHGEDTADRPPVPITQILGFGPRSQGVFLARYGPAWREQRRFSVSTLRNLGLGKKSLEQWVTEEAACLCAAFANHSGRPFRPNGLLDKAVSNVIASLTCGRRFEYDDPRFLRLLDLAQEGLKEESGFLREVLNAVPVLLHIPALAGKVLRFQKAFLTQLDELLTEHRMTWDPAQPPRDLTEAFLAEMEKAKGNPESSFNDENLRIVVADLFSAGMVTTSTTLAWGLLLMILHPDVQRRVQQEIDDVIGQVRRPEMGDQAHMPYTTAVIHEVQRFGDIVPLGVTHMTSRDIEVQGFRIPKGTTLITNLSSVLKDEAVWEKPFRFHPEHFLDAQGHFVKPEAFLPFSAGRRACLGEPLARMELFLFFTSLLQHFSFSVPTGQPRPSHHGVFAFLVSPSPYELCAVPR

Cytochrome P450 3A4 = Cytochrome P450 3A4 (Homo sapiens, UniProt P08684);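 note: CYP3A4 tested as one member of a cytochrome P450 panel screen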
Chain of Cytochrome P450 3A4 (P08684 whole entry): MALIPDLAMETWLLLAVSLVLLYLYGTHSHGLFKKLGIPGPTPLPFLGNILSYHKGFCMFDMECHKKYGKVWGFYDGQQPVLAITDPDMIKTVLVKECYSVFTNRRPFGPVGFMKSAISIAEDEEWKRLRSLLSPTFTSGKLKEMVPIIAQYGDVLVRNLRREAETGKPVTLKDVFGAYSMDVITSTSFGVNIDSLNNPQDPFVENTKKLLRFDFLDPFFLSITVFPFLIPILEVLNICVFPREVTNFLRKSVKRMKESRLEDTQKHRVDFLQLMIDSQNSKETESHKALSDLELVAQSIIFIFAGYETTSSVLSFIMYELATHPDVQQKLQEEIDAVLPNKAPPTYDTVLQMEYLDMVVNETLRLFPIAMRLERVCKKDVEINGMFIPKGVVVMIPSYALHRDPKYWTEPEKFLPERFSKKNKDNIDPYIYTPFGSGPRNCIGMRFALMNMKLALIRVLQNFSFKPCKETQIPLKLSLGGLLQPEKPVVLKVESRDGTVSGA

Cc1ccc(S(=O)(=O)N2CCN(C(=O)COC(=O)CCOc3ccccc3C)CC2)c(C)c1
IC50 [1]: 10.7 µM (active)

Cc1cc(CNC(=O)COC(=O)Cn2[nH]c(=O)c3ccccc3c2=O)cc(C)c1O
IC50 (H9c2): > 79 µM (inactive)

N#Cc1cccc(-c2ccc3c(c2)[C@@H]2[C@@H](CCN2S(=O)(=O)c2ccc(F)cc2)[C@@H](CO)N3)c1
AC50 (Paired box protein Pax-8): 6.61 µM (active)

COc1ccccc1Nc1nc(Cl)c(C=O)s1
IC50 [2]: > 50 µM (not active)

C[C@H](CO)N1C[C@H](C)[C@H](CN(C)Cc2ccc(Cl)c(Cl)c2)OCCCC[C@H](C)Oc2ccc(NC(=O)Nc3ccccc3)cc2C1=O
AC50 (Paired box protein Pax-8): 11.9 µM (active)

C[C@@H]1CCCCO[C@@H](CN(C)C(=O)C2CCCCC2)[C@H](C)CN([C@H](C)CO)C(=O)c2cc(NC(=O)Nc3ccc(F)cc3)ccc2O1
AC50 (Paired box protein Pax-8): 8.22 µM (active)

CCOC(=O)c1cnc(-n2nc(C)cc2C)nc1Nc1ccc(OC)cc1
EC50 [3]: 6.33 µM (active)
IC50 [2]: < 0.4 µM (not active)
EC50 (Streptococcus): > 150 µM (not active)
EC50 (Streptokinase A): > 150 µM (not active)

O=C(Nc1cc(=O)c2ccccc2o1)N1CCCCC1
IC50 (H9c2): 22.8 µM (active)

CN1CCCN(S(=O)(=O)c2ccc3c(c2)OCCO3)CC1
AC50 (Cytochrome P450 2C9): inconclusive
AC50 (Cytochrome P450 2C19): 25.1 µM (inconclusive)

CCCCNC(=O)Cc1ccc(C)cc1
CC50 [4]: > 40 µM (active)

O=C(CNC(=O)c1cccs1)NCC(=O)OCc1ccc(Cl)cc1Cl
AC50 (Cytochrome P450 2C9): inconclusive
AC50 (Cytochrome P450 1A2): 10 µM (inconclusive)

CN1/C(=C\C(=O)CSc2nnc(NCc3ccccc3)s2)C(C)(C)c2ccccc21
IC50 (Protein skinhead-1): > 100 µM (inactive)
IC50 [2]: 4.01 µM (not active)

COCC(C)n1c(C)cc(C(=O)COC(=O)c2c(NC(C)=O)sc(C)c2C)c1C (stereo not given)
IC50 [1]: 9.88 µM (active)

O=C(Nc1ccccc1Cl)c1ccccc1Cl
AC50 (Cytochrome P450 2C9): inconclusive

CC(C)C1OC(NC(=O)Nc2ccc(Cl)c(Cl)c2)=NC1=O (stereo not given)
EC50 [3]: 2.51 µM (active)
IC50 (cells): 18.9 µM (active)
CC50 [4]: > 40 µM (active)
EC50 (Streptococcus): 28.7 µM (active)
EC50 (Streptokinase A): > 150 µM (not active)

Cc1ccc(NC(=O)c2cccc(N(C)C)c2)cc1NC(=O)c1ccc(O)cc1
AC50 (Cytochrome P450 2C9): inconclusive

CCn1c(CNC(=O)COc2ccc(C(C)C)cc2)nnc1SCC(=O)Nc1cc(F)ccc1C
AC50 (Cytochrome P450 2D6): 22.4 µM (inconclusive)
IC50 [1]: 16.7 µM (active)

Cc1ccc(C(=O)O)cc1-c1ccc(C=C2C(=O)c3ccccc3C2=O)o1
IC50 [1]: 13.7 µM (active)

C[C@H]1CCCCO[C@@H](CN(C)S(=O)(=O)c2cccs2)[C@@H](C)CN([C@@H](C)CO)C(=O)c2cc(NC(=O)NC3CCCCC3)ccc2O1
AC50 (Paired box protein Pax-8): 4.79 µM (active)

COC(=O)c1cc(Cl)c(NC(=O)/C=C/c2ccc(OC)c(OC)c2)cc1OC
IC50 (H9c2): 22.1 µM (active)

CCc1cccc2c(C=C(C#N)C#N)cn(CC(=O)N3CCCC3)c12
AC50 (Cytochrome P450 2C9): inconclusive

Cc1cc(C)n(C(=O)c2cc3ccccc3c(=O)o2)n1
AC50 (Cytochrome P450 2C9): inconclusive

COc1ccc(OC)c([N+](=O)[O-])c1C(N)=O
IC50 [1]: 3.49 µM (active)

Cc1cccc(OCc2nc(C#N)c(NCc3ccc4c(c3)OCO4)o2)c1
IC50 [2]: 6.8 µM (not active)

CC(=O)Nc1ccc(N/C=C2\C(=O)NC(=O)N(Cc3ccco3)C2=O)cc1
IC50 [1]: 9.73 µM (active)

Cc1ccc(NC(=O)CN(C)C(=O)c2cc(-c3ccco3)nc3ccccc23)cc1
IC50 [1]: 3.88 µM (active)

Cc1cc2ccccn2c1C(=O)c1ccc(N/N=C/c2ccc(C(=O)O)cc2)c([N+](=O)[O-])c1
IC50 [1]: 1.02 µM (active)

c1ccc(Oc2ccc(-c3ccnc4ncnn34)cc2)cc1
IC50 [2]: 11.5 µM (active)

Cc1cccc(CNc2ccnc(-c3ccccc3CN(C)C)n2)c1
AC50 (Cytochrome P450 2C9): inconclusive
AC50 (Cytochrome P450 3A4): 3.98 µM (inconclusive)

O=C(COC(=O)c1ccc(Cl)c(S(=O)(=O)N2CCCCC2)c1)NCc1ccco1
IC50 [1]: 13.8 µM (active)

C/C(=N\NC(=O)COc1ccc(C)cc1Br)c1cc([N+](=O)[O-])cs1
IC50 (cells): 34.1 µM (active)
CC50 [4]: > 40 µM (active)

Cc1cc2ncn(-c3ncnc4sc5c(c34)CCC(C)C5)c2cc1C (stereo not given)
IC50 [2]: 19.2 µM (not active)

Reference: ChEMBL document CHEMBL1201862, “PubChem BioAssay data set” (2004)
